From paper PMC2828351 (Bioorganic & medicinal chemistry, 2009)

Columns and labels:
JNK = JNK (Homo sapiens, UniProt P45983); assay: LanthaScreen kinase activity assay; type: biochemical
GST-JNK1 = GST-JNK1 (Homo sapiens, UniProt P45983); assay: pepJIP1 DELFIA displacement assay; type: binding
Furin = Furin (Homo sapiens, UniProt P09958); assay: Selectivity profile: furin protease; type: biochemical
Akt kinase = assay: Selectivity profile: Akt kinase; type: biochemical; details: for activity against Akt kinase: no significant inhibition at 100 μM
p38α = p38α (Homo sapiens, UniProt Q16539); assay: Selectivity profile: p38α kinase; type: biochemical
lethal factor (LF) = lethal factor (LF) (Bacillus anthracis, UniProt P15917); assay: biochemical; type: biochemical
Chain of lethal factor (LF) (P15917 34-809 limits assumed): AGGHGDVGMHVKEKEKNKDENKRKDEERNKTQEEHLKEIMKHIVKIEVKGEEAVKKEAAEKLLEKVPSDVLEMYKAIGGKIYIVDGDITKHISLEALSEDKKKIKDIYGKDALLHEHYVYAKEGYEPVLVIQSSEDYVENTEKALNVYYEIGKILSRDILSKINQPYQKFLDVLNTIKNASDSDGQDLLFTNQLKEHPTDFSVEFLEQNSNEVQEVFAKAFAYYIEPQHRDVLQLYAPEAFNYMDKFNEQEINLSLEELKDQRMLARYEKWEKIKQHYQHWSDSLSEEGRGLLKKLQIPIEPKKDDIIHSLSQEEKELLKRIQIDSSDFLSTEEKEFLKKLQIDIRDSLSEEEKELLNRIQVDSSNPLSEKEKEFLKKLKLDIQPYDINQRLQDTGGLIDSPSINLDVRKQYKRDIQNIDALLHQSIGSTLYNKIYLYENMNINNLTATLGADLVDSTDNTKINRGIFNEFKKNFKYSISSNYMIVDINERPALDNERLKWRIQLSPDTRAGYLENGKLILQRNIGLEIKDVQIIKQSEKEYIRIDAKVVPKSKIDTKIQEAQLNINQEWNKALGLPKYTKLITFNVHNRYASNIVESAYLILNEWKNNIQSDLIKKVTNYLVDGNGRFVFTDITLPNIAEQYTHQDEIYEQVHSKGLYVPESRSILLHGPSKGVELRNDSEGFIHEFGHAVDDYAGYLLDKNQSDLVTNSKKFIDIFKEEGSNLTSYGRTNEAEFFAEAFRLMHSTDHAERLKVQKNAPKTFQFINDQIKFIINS

Chain of JNK (P45983 whole entry): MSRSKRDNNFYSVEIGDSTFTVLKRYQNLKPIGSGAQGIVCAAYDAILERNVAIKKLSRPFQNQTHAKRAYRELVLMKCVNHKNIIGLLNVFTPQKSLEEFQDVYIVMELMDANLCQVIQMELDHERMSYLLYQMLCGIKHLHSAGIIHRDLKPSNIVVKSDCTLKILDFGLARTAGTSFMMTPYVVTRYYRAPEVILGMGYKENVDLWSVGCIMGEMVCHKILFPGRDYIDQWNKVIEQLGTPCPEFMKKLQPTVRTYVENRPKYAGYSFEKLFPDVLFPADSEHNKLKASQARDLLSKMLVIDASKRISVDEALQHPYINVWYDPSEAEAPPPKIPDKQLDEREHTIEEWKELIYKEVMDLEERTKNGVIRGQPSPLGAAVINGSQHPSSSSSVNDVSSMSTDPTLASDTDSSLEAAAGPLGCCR
Chain of GST-JNK1 (P45983 whole entry): as above
Chain of p38α (Q16539 whole entry): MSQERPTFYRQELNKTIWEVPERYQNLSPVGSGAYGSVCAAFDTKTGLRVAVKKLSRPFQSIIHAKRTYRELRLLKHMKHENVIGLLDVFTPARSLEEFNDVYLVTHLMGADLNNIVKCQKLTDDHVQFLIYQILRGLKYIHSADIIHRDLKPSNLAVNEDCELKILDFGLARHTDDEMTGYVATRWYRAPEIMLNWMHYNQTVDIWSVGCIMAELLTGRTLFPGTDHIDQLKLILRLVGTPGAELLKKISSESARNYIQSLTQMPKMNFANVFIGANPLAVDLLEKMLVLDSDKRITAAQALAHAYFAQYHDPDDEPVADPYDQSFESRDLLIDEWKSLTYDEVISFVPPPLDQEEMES
Chain of Furin (P09958 108-794, species assumed): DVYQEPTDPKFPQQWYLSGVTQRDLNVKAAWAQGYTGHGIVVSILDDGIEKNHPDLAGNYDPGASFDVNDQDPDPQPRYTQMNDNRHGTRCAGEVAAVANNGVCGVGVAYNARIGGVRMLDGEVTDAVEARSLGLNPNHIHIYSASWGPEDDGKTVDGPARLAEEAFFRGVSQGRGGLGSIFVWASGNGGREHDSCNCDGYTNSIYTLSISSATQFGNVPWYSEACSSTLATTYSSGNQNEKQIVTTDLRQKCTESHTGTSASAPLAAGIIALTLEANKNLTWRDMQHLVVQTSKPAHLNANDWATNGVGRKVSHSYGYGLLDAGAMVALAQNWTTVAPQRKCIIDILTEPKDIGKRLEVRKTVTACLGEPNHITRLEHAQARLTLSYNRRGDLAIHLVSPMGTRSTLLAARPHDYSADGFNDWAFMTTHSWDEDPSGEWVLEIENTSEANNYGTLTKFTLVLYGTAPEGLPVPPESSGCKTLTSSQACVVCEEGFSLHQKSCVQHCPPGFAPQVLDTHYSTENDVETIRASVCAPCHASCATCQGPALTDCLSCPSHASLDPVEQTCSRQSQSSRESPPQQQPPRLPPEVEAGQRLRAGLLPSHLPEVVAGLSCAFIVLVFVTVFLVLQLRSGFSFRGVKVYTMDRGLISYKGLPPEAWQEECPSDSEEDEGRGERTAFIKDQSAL

SMILES | activity in kinase assay / JNK inhibition (JNK) | IC50 (GST-JNK1) | also measured
O=[N+]([O-])c1cnc(Sc2nc3cc(Cl)ccc3s2)s1 [BI-87F2] | inactive |  | 
Cn1c(Sc2nc3ccc(Cl)cc3s2)nnc1-c1ccc(Cl)cc1Cl [BI-87G12] |  | > 100 µM | 
Cn1c(Sc2nc3ccc(Cl)cc3s2)nnc1-c1ccc2ncccc2c1 [BI-87F12] |  | > 100 µM | 
O=[N+]([O-])c1cnc(Sc2nc3ccc(Cl)cc3s2)s1 [BI-87F8] | inactive |  | 
Nc1ncnc2nc(Sc3ncc([N+](=O)[O-])s3)[nH]c12 [BI-87C10] | none of these were good JNK inhibitors | < 1 µM | 
O=C(O)c1ccc(CSc2nc3ccccc3[nH]2)cc1 [BI-87D4] |  | > 100 µM | 
COc1ccc2sc(Sc3ncc([N+](=O)[O-])s3)nc2c1 [BI-87D11] |  |  | activity against furin (Furin): inactive; Akt, inhibition at 100 μM (Akt kinase): 5% inhibition at 100 μM; activity against Akt kinase (Akt kinase): inactive; times less active against p38α (vs JNK) (p38α): at least 50 times; IC50 (lethal factor (LF)): > 100 µM; activity against lethal factor (lethal factor (LF)): inactive
O=[N+]([O-])c1cnc(Sc2nc3cc(S(=O)(=O)O)ccc3[nH]2)s1 [BI-87H1] |  | > 100 µM | 
CCOc1ccc2nc(Sc3ncc([N+](=O)[O-])s3)sc2c1 [BI-87G2] | inactive | > 100 µM | 
O=[N+]([O-])c1cnc(Sc2nc3ccccc3s2)s1 [BI-87G3, 2-(5-nitrothiazol-2-ylthio)benzo[d]thiazole] |  |  | activity against furin (Furin): inactive; Akt, inhibition at 100 μM (Akt kinase): 2% inhibition at 100 μM; activity against Akt kinase (Akt kinase): inactive; times less active against p38α (vs JNK) (p38α): at least 50 times; IC50 (lethal factor (LF)): > 100 µM; activity against lethal factor (lethal factor (LF)): inactive
Nc1ncnc2[nH]c(SCc3ccc(C(=O)O)cc3)nc12 [BI-87C7] | none of these were good JNK inhibitors | > 100 µM | 
Cn1c(Sc2ncc([N+](=O)[O-])s2)nc2ccccc21 [BI-87F7] | no activity |  | 
Cn1c(Sc2nc3ccc(Cl)cc3s2)nnc1-c1cccs1 [BI-87F11] |  | > 100 µM | 
